The values that follow come from patent US8354414B2, “Substituted bicyclic pyrimidines” (Cephalon, Inc, priority 2006, dated 2013).

Where two headings read alike, the source gives them in different places. Where only a bound is given, the exact number is not on record here.

A word on the melting point: it is the temperature of the solid-liquid transition. What is called IC50 is the point on the concentration scale where inhibition reaches its midpoint. In general, inhibition refers to the change of the read-out against control, counted positive when it falls. A low value points to little suppression.

The target in one data set is T1, His6-GSK-3β (Homo sapiens, UniProt P49841).
T1 construct: made in house; host or cells: Sf21 insect cells (baculovirus)
The data set can be described thus: Inhibition of His6-GSK-3β kinase activity (ELISA-based format, time-resolved fluorescence readout). As to conditions: read-out: GSK3β IC50. Type of data set: biochemical. In outline:
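Plate-bound recombinant GST-Rb substrate was phosphorylated for 30 min at 37° C by baculovirus-expressed His6-GSK-3β (200 ng/ml) at 20 μM ATP, 10 mM MgCl2, 2.5% DMSO. Europium time-resolved fluorescence of anti-phospho-Ser780 Rb signal gave inhibition, fitted to IC50.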

The target in another data set is T2, CDK5/GST-p25 (Homo sapiens, UniProt Q00535).
T2 construct: The final construct, encoding for full-length human CDK5; made in house; host or cells: Sf21 insect cells (baculovirus co-infection)
The data set can be described thus: Inhibition of CDK5/GST-p25 kinase activity (ELISA with time-resolved fluorescence readout). Type of data set: biochemical. In outline: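 The substrate, GST-Rb(773-928), was immobilised on plates and phosphorylated for 20 min at 37 °C by 2 ng/ml CDK5/GST-p25 in HEPES pH 7.2 with 10 µM ATP and 10 mM MgCl2. Both proteins were human and co-expressed in insect cells. Ser-780 phosphorylation was read by europium time-resolved fluorescence and converted to IC50.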

T1 sequence (P49841 2-419): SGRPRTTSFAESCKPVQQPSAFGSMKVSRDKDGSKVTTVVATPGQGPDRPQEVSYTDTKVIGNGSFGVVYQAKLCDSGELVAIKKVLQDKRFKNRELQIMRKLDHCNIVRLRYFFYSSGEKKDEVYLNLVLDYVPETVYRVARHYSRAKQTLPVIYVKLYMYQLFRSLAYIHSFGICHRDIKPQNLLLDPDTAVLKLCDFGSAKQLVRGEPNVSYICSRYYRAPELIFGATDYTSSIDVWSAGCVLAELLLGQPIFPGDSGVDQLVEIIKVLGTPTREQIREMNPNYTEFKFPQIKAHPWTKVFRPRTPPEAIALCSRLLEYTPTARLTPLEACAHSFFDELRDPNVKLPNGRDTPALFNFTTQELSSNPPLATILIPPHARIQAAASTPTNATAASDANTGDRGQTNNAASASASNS
T2 sequence (Q00535 whole entry): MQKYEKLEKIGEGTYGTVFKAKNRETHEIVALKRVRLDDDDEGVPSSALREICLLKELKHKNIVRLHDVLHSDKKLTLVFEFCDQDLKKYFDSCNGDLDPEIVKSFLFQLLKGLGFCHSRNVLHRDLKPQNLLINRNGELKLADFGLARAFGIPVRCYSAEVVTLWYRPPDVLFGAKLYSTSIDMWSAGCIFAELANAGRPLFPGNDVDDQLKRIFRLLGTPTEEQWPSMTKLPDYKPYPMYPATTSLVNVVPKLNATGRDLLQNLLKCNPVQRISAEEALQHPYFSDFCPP
T2 sequence (Q15078 108-307 partner limits assumed): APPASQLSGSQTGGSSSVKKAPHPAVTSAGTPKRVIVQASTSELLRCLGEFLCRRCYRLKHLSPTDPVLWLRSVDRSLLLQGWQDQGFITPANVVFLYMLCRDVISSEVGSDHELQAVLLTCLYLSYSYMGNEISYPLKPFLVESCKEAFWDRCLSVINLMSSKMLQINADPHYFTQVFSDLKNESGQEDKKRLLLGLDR

In turn, `O=C1Nc2ccccc2C1c1nc(NCc2cccnc2)nc2nn(C3CCCC3)cc12` (stereo not drawn) [Example 156, 3-{2-cyclopentyl-6-[(pyridin-3-ylmethyl)-amino]-2H-pyrazolo [3,4-d]pyrimidin-4-yl}-1,3-dihydro-indol-2-one] yielded a melting point of 216 to 218 °C. In addition, the IC50 on His6-GSK-3β (class symbols) was less than 300 nM. At CDK5/GST-p25 (class symbols), the half-inhibitory concentration (IC50) is less than 300 nM.

Consider `Cn1ncc2c(C3C(=O)Nc4ccc(Br)cc43)ncnc21` (stereo not drawn) [Example 85, 5-Bromo-3-(1-methyl-1H-pyrazolo[3,4-d]pyrimidin-4-yl)-1,3-dihydro-indol-2-one], for which the melting point is more than 350 °C. Moreover, the half-maximal inhibitory concentration (IC50) on His6-GSK-3β (numeric bounds) is more than 3000 nM. The IC50 on CDK5/GST-p25 (class symbols) is less than 300 nM.

In the case of `CCCn1cc2c(C3C(=O)Nc4ccc(C#N)cc43)nc(NCc3ccncc3)nc2n1` (stereo not drawn) [Example 186, 2-Oxo-3-{2-propyl-6-[(pyridine-4-ylmethyl)-amino]-2H-pyrazolo [3,4-d]pyrimidin-4-yl}-2,3-dihydro-1H-indole-5-carbonitrile], the melting point is 299 to 302 °C. In addition, on His6-GSK-3β (class symbols), the half-maximal inhibitory concentration (IC50) was less than 300 nM. This compound displayed a half-maximal inhibitory concentration (IC50) against CDK5/GST-p25 (class symbols) of less than 300 nM.

Take `CCOCCn1cc2c(C3C(=O)Nc4ccc(Br)cc43)nc(NCCN3CCOCC3)nc2n1` (stereo not drawn) [Example 240, 5-Bromo-3-[2-(2-ethoxy-ethyl)-6-(2-morpholin-4-yl-ethylamino)-2H-pyrazolo [3,4-d]pyrimidin-4-yl]-1,3-dihydro-indol-2-one]: the melting point lay within 276 to 278 °C. At His6-GSK-3β (class symbols), the IC50 is less than 300 nM. This compound also registered an IC50 against CDK5/GST-p25 (class symbols) of less than 300 nM.

As to `CC(C)Nc1nc(C2C(=O)Nc3ccc(C(F)(F)F)cc32)c2cn(C3CCCC3)nc2n1` (stereo not drawn) [Example 250, 3-(2-Cyclopentyl-6-isopropylamino-2H-pyrazolo[3,4-d]pyrimidin-4-yl)-5-trifluoromethyl-1,3-dihydro-indol-2-one], the melting point lay within 299 to 301 °C. On His6-GSK-3β (class symbols), the IC50 is less than 300 nM. In addition, at CDK5/GST-p25 (class symbols), the IC50 is more than 10000 nM.

In turn, `COCCn1cc2c(C3C(=O)Nc4ccc(Br)cc43)nc(NC[C@H](C)O)nc2n1` (stereo partly drawn) [Example 230, 5-Bromo-3-[6((S)-2-hydroxy-propylamino)-2-(2-methoxy-ethyl)-2H-pyrazolo [3,4-d]pyrimidin-4-yl]-1,3-dihydro-indol-2-one] had a melting point of more than 300 °C. Besides, the IC50 on His6-GSK-3β (class symbols) was less than 300 nM. This compound displayed an IC50 at CDK5/GST-p25 (class symbols) of less than 300 nM.

For the compound `CCCCCn1cc2c(C3C(=O)Nc4ccc(C(F)(F)F)cc43)nc(NCCCN3CCOCC3)nc2n1` (stereo not drawn) [Example 290, 3-[6-(3-Morpholin-4-yl-propylamino)-2-pentyl-2H-pyrazolo[3,4-d]pyrimidin-4-yl]-5-trifluoromethyl-1,3-dihydro-indol-2-one], the melting point is 230 °C (dec.). For the same compound, the concentration for half-maximal inhibition (IC50) on His6-GSK-3β (class symbols) is less than 300 nM. Besides, the inhibition at 10 µM against CDK5/GST-p25 was determined as 73%.

As to `O=C1Nc2ccccc2C1c1nc(NCCCN2CCOCC2)nc2nn(C3CCCC3)cc12` (stereo not drawn) [Example 157, 3-[2-cyclopentyl-6-(3-morpholin-4-yl-propylamino)-2H-pyrazolo[3,4-d]pyrimidin-4-yl]-1,3-dihydro-indol-2-one], the melting point is 242 to 245 °C. Moreover, the half-maximal inhibitory concentration (IC50) at His6-GSK-3β (class symbols) is 300 to 3000 nM. Also, the IC50 on CDK5/GST-p25 (numeric bounds) was more than 3000 nM.

On to `COCCn1cc2c(C3C(=O)Nc4ccc(Br)cc43)nc(NCCN(C)C)nc2n1` (stereo not drawn) [Example 229, 5-Bromo-3-[6-(2-dimethylamino-ethylamino)-2-(2-methoxy-ethyl)-2H-pyrazolo[3,4-d]pyrimdin-4-yl]-1,3-dihydro-indol-2-one], for which the melting point is 291 to 292 °C. Besides, the IC50 at His6-GSK-3β (class symbols) fell in the range of 300 to 3000 nM. The compound further showed an IC50 against CDK5/GST-p25 (class symbols) of 300 to 3000 nM.

Take `Cl.NCCNc1nc(C2C(=O)Nc3ccc(C(F)(F)F)cc32)c2cn(C3CCCC3)nc2n1` (stereo not drawn) [Example 252, 3-[6-(2-Amino-ethylamino)-2-cyclopentyl-2H-pyrazolo[3,4-d]pyrimidin-4-yl]-5-trifluoromethyl-1,3-dihydroindol-2-one hydrochloride salt]: the melting point was 290 to 293 °C. For the same compound, the IC50 at His6-GSK-3β (class symbols) is less than 300 nM. The compound also gave an IC50 on CDK5/GST-p25 (class symbols) of 300 to 3000 nM.
